Drawing on US20240398725A1, “NANOPARTICLES FOR CANCER TREATMENT” (priority 2021, published 2024), this text covers IC50 for 1 compound.

In assay [1] the test system is SW872. Nature of the assay: MTS assay, doxorubicin IC50 in parental cell line SW872. It is filed as cell-based. The following applies: Homo sapiens. From the text: (§1) The dedifferentiated liposarcoma cell line (SW872) is one of the earliest STS model systems that has been extensively studied in preclinical investigations (Dodd 2010, Stratford 2012).
(§2) The SW872-DXR model was derived from the commercial cell line SW872. The resistance to doxorubicin was initiated in 2D cultures, by adding increased concentrations of doxorubicin every 2 weeks, starting from the IC50 concentrations of doxorubicin of the “parental” cell line SW872. The resistance of this cell line was verified by 3-(4,5-dimethylthiazol-2-yl)-5-(3-carboxymethoxyphenyl)-2-(4-sulfophenyl)-2H-tetrazolium (MTS) assay.
On the technique in general: Tetrazolium dyes change colour on reduction, which living cells bring about.

For assay [2], the system named is SW872-DXR. Kind of assay: MTS assay, doxorubicin IC50 in doxorubicin-resistant SW872-DXR. It counts as cell-based. As to conditions: Homo sapiens.
Source text: as §1, §2

As a reminder, the IC50 is the midpoint of a concentration-inhibition curve. Consider `COc1cccc2c1C(=O)c1c(O)c3c(c(O)c1C2=O)C[C@@](O)(C(=O)CO)C[C@@H]3O[C@H]1C[C@H](N)[C@H](O)[C@H](C)O1` [doxorubicin], for which the IC50 in assay [1] was roughly 200 nM; in assay [2] it was greater than 1000 nM.
